Legend:
[1] = system: CaMKIIα‐tTA/A53T α‐syn dTg mice; assay: Y‐maze task; format: in vivo, mouse; conditions: 1 mg/kg p.o. (P = .12)
Protocol: The Y‐maze was fabricated from gray plastic and consisted of three arms (40 cm long, 12 cm high, 3 cm wide at the bottom, and 10 cm wide at the top) with an angle of 120°. Visual cues were placed outside each arm, and the apparatus was illuminated at 10 lux. […] An arm entry was defined as all four paws of the mouse being in the arm, and the sequence of arm entries was monitored with a video camera and counted manually. An alternation was defined as successive entries into the three arms on overlapping triplet sets.36 The percentage of alternation was calculated as the ratio of actual to possible alternations (total number of arm entries minus 2) multiplied by 100.

[2] = system: SD rats; conditions: rats, donepezil 0.1 mg/kg p.o. alone; combination study; rats with effect/total
Protocol: Seven‐ or 8‐week‐old SD rats were individually placed into observation cages. After an acclimation period of at least 1 hour, a test compound was administered to the rats. […] Cholinergic side effects, including diarrhea, lacrimation, salivation, miosis, and fasciculation, were assessed blindly, as described previously,27 and convulsion was scored using a modified Racine scale,37 as follows: stage 0, normal; stage 1, immobility; stage 2, forelimb and/or tail extension and rigid posture; stage 3, repetitive movements, head nodding, and gnawing; stage 4, rearing and falling; stage 5, continuous rearing and falling; stage 6, severe tonic‐clonic seizure with loss of postural control; and stage 7, death in the first 2 hours.

[3] = system: rats pretreated with scopolamine; design: method as in PMID 30089885; conditions: 0.1 mg/kg; cited from earlier work
[4] = system: M1R; design: method as in PMID 30089885; conditions: cited from earlier work
[5] = system: rats; design: method as in PMID 30089885; conditions: cited from earlier work
[6] = system: M1R; design: method as in PMID 30089885; conditions: at concentrations required for procognitive efficacy; cited from earlier work

| SMILES | reduced percentage of alternations [1] | Convulsion [2] | Fasciculation [2] | Lacrimation [2] | Loose, mucous stool, or diarrhea [2] | Myosis [2] | Salivation [2] | scopolamine‐induced NDI reduction, retention trial [3] | α‐value (cooperativity) [4] | scopolamine‐induced cognitive impairment, combination with an AChEI [5] | difference between doses improving cognitive function and doses inducing diarrhea ([5]; rats) [fold] | inhibition of the binding of scopolamine to M1R [6] |
| --- | --- | --- | --- | --- | --- | --- | --- | --- | --- | --- | --- | --- |
| COc1cc2c(cc1OC)C(=O)C(CC1CCN(Cc3ccccc3)CC1)C2 (stereo not drawn) [donepezil, reference compound] | tended to reverse | 0/6 | 0/6 | 0/6 | 0/6 | 0/6 | 0/6 | subeffective | – | – | – | – |
| Cc1c(Cc2ccc(-n3cccn3)cc2)cc2c(c1F)CN([C@H]1COCC[C@@H]1O)C2=O [TAK‐071] | – | – | – | – | – | – | – | – | 199 | synergistically improved | 33 | did not inhibit |
